Source: patent US9770445B2, “Sulfoximine substituted 5-fluoro-N-(pyridin-2-yl)pyridin-2-amine derivatives and their use as CDK9 kinase inhibitors” (BAYER PHARMA AKTIENGESELLSCHAFT, priority 2013, dated 2017)
pIC50: −log10 of the molar value.

Tests used:
[1] = molecular target: T1, CDK2/CycE (Homo sapiens, UniProt P24941); assay: CDK2/CycE kinase assay (Method 2, TR-FRET); assay type: biochemical; settings: Method 2, 10 μM ATP
T1 construct: GST; purchased ProQinase GmbH (Freiburg, Germany); host or cells: insect cells (Sf9)
Source text: 2. CDK2/CycE Kinase Assay:
CDK2/CycE-inhibitory activity of compounds of the present invention was quantified employing the CDK2/CycE TR-FRET assay as described in the following paragraphs:
Recombinant fusion proteins of GST and human CDK2 and of GST and human CycE, expressed in insect cells (Sf9) and purified by Glutathion-Sepharose affinity chromatography, were purchased from ProQinase GmbH (Freiburg, Germany). As substrate for the kinase reaction biotinylated peptide biotin-Ttds-YISPLKSPYKISEG (C-terminus in amid form) was used which can be purchased e.g. form the company JERINI Peptide Technologies (Berlin, Germany).
For the assay 50 nl of a 100 fold concentrated solution of the test compound in DMSO was pipetted into a black low volume 384 well microtiter plate (Greiner Bio-One, Frickenhausen, Germany), 2 μl of a solution of CDK2/CycE in aqueous assay buffer [50 mM Tris/HCl pH 8.0, 10 mM MgCl2, 1.0 mM dithiothreitol, 0.1 mM sodium ortho-vanadate, 0.01% (v/v) Nonidet-P40 (Sigma)] were added and the mixture was incubated for 15 min at 22° C. to allow pre-binding of the test compounds to the enzyme before the start of the kinase reaction. Then the kinase reaction was started by the addition of 3 μl of a solution of adenosine-tri-phosphate (ATP, 16.7 μM=>final conc. in the 5 μl assay volume is 10 μM) and substrate (1.25 μM=>final conc. in the 5 μl assay volume is 0.75 μM) in assay buffer and the resulting mixture was incubated for a reaction time of 25 min at 22° C. The concentration of CDK2/CycE was adjusted depending of the activity of the enzyme lot and was chosen appropriate to have the assay in the linear range, typical concentrations were in the range of 130 ng/mL. The reaction was stopped by the addition of 5 μl of a solution of TR-FRET detection reagents (0.2 μM streptavidine-XL665 [Cisbio Bioassays, Codolet, France] and 1 nM anti-RB(pSer807/pSer811)-antibody from BD Pharmingen [#558389] and 1.2 nM LANCE EU-W1024 labeled anti-mouse IgG antibody [Perkin-Elmer, product no. AD0077]) in an aqueous EDTA-solution (100 mM EDTA, 0.2% (w/v) bovine serum albumin in 100 mM HEPES/NaOH pH 7.0).
(§1) The resulting mixture was incubated 1 h at 22° C. to allow the formation of complex between the phosphorylated biotinylated peptide and the detection reagents. Subsequently the amount of phosphorylated substrate was evaluated by measurement of the resonance energy transfer from the Eu-chelate to the streptavidine-XL. Therefore, the fluorescence emissions at 620 nm and 665 nm after excitation at 350 nm was measured in a TR-FRET reader, e.g. a Rubystar (BMG Labtechnologies, Offenburg, Germany) or a Viewlux (Perkin-Elmer). The ratio of the emissions at 665 nm and at […] was taken as the measure for the amount of phosphorylated substrate. The data were normalised (enzyme reaction without inhibitor=0% inhibition, all other assay components but no enzyme=100% inhibition).

[2] = molecular target: T2, CDK9/CycT1 (Homo sapiens, UniProt P50750); assay: CDK9/CycT1 high ATP kinase assay (Method 1b, TR-FRET); assay type: biochemical; settings: 2 mM ATP
T2 construct: Recombinant full-length His-tagged human CDK9 and CycT1; His; purchased Invitrogen PV4131; host or cells: insect cells
T2 sequence (P50750 whole entry): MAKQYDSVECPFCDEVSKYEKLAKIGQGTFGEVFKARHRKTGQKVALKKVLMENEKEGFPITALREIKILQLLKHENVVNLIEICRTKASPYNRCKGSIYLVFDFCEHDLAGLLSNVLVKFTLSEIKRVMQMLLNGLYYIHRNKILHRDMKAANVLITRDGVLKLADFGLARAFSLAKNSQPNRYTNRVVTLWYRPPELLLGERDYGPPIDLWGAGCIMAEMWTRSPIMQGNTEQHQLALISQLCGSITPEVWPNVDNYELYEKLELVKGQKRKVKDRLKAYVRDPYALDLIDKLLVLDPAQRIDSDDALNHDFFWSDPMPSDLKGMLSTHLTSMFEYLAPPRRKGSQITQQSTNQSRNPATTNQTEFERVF
T2 sequence (O60563 whole entry partner): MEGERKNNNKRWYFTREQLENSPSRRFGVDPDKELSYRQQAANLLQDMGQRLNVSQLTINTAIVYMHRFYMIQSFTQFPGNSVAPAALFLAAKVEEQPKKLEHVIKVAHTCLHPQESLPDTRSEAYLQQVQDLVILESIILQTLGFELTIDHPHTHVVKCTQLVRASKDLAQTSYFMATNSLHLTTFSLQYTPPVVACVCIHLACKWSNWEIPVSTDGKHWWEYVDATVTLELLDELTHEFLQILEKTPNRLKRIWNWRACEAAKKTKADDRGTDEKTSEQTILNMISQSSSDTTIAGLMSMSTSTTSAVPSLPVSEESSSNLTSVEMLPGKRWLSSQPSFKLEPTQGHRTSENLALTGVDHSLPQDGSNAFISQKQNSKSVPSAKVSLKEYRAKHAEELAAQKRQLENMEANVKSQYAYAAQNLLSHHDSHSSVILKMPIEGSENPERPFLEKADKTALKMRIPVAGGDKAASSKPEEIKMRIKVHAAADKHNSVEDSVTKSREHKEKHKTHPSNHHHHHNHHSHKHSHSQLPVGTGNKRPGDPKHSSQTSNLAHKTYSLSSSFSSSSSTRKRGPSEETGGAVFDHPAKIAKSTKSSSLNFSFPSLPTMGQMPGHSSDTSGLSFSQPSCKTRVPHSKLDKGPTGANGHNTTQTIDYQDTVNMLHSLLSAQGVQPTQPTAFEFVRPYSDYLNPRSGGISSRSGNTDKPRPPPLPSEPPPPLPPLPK
Procedure: 1b. CDK9/CyeT1 High ATP Kinase Assay
CDK9/CycT1-inhibitory activity of compounds of the present invention at a high ATP concentration after preincubation of enzyme and test compounds was quantified employing the CDK9/CycT1 TR-FRET assay as described in the following paragraphs.
Recombinant full-length His-tagged human CDK9 and CycT1, expressed in insect cells and purified by Ni-NTA affinity chromatography, were purchase from Invitrogen (Cat. No PV4131). As substrate for the kinase reaction biotinylated peptide biotin-Ttds-YISPLKSPYKISEG (C-terminus in amid form) was used which can be purchased e.g. form the company JERINI peptide technologies (Berlin, Germany). For the assay 50 nl of a 100 fold concentrated solution of the test compound in DMSO was pipetted into a black low volume 384 well microtiter plate (Greiner Bio-One, Frickenhausen, Germany), 2 μl of a solution of CDK9/CycT1 in aqueous assay buffer [50 mM Tris/HCl pH 8.0, 10 mM MgCl2, 1.0 mM dithiothreitol, 0.1 mM sodium ortho-vanadate, 0.01% (v/v) Nonidet-P40 (Sigma)] were added and the mixture was incubated for […] at 22° C. to allow pre-binding of the test compounds to the enzyme before the start of the kinase reaction. Then the kinase reaction was started by the addition of 3 μl of a solution of adenosine-tri-phosphate (ATP, 3.3 mM=>final conc. in the 5 μl assay volume is 2 mM) and substrate (1.67 μM=>final conc. in the 5 μl assay volume is 1 μM) in assay buffer and the resulting mixture was incubated for a reaction time of […] at 22° C. The concentration of CDK9/CycT1 was adjusted depending of the activity of the enzyme lot and was chosen appropriate to have the assay in the linear range, typical concentrations were in the range of 0.5 μg/mL The reaction was stopped by the addition of 5 μl of a solution of TR-FRET detection reagents (0.2 μM streptavidine-XL665 [Cisbio Bioassays, Codolet, France] and 1 nM anti-RB(pSer807/pSer811)-antibody from BD Pharmingen [#558389] and 1.2 nM LANCE EU-W1024 labeled anti-mouse IgG antibody [Perkin-Elmer, product no. AD0077]) in an aqueous EDTA-solution (100 mM EDTA, 0.2% (w/v) bovine serum albumin in 100 mM HEPES/NaOH pH 7.0).
as §1, with “HTRF” for “TR-FRET”

Work on `CS(=N)(=O)Cc1cc(F)nc(Nc2cc(-c3ccc(F)c4ccoc34)c(F)cn2)c1` (racemic) [Example 1, (rac)-5-Fluoro-4-(4-fluoro-1-benzofuran-7-yl)-N-{6-fluoro-4-[(S-methylsulfonimidoyl)methyl]pyridin-2-yl}pyridin-2-amine] yielded a pIC50 [1] of 7.38 and a pIC50 [2] of 8.82.
`CS(=O)(Cc1cc(F)nc(Nc2cc(-c3ccc(F)c4ccoc34)c(F)cn2)c1)=NC(=O)C(F)(F)F` (racemic) [Example 2, (rac)-2,2,2-Trifluoro-N-{[(2-fluoro-6-{[5-fluoro-4-(4-fluoro-1-benzofuran-7-yl)pyridin-2-yl]amino}pyridin-4-yl)methyl](methyl)oxido-λ^6-sulfanylidene}acetamide] was tested, and the pIC50 [1] was 6.42 and the pIC50 [2] was 8.11.
For `CS(=N)(=O)Cc1cc(Nc2cc(-c3ccc(F)c4ccoc34)c(F)cn2)nc(C(F)(F)F)c1` (racemic) [Example 3, (rac)-5-Fluoro-4-(4-fluoro-1-benzofuran-7-yl)-N-{4-[(S-methylsulfonimidoyl)methyl]-6-(trifluoromethyl)pyridin-2-yl}pyridin-2-amine], the pIC50 [1] was 7.68 and the pIC50 [2] was 8.57.
With `CS(=O)(Cc1cc(Nc2cc(-c3ccc(F)c4ccoc34)c(F)cn2)nc(C(F)(F)F)c1)=NC(=O)C(F)(F)F` (racemic) [Example 4, (rac)-2,2,2-Trifluoro-N-[{[2-{[5-fluoro-4-(4-fluoro-1-benzofuran-7-yl)pyridin-2-yl]amino}-6-(trifluoromethyl)pyridin-4-yl]methyl}(methyl)oxido-λ^6-sulfanylidene]acetamide] the pIC50 [1] was 6.96 and the pIC50 [2] was 8.15.
In the case of `CS(=N)(=O)Cc1ccnc(Nc2cc(-c3ccc(F)c4ccoc34)c(F)cn2)c1` (racemic) [Example 5, (rac)-5-Fluoro-4-(4-fluoro-1-benzofuran-7-yl)-N-{4-[(S-methylsulfonimidoyl)methyl]pyridin-2-yl}pyridin-2-amine], the pIC50 [1] was 6.89 and the pIC50 [2] was 8.70.
`CS(=O)(Cc1ccnc(Nc2cc(-c3ccc(F)c4ccoc34)c(F)cn2)c1)=NC(=O)C(F)(F)F` (racemic) [Example 6, (rac)-2,2,2-Trifluoro-N-{[(2-{[5-fluoro-4-(4-fluoro-1-benzofuran-7-yl)pyridin-2-yl]amino}pyridin-4-yl)methyl](methyl)oxido-λ^6-sulfanylidene}acetamide] showed a pIC50 [1] of 6.27 and a pIC50 [2] of 8.19.
In the case of `Cc1cc(CS(C)(=N)=O)cc(Nc2cc(-c3ccc(F)c4ccoc34)c(F)cn2)n1` (racemic) [Example 7, (rac)-5-Fluoro-4-(4-fluoro-1-benzofuran-7-yl)-N-{6-methyl-4-[(S-methylsulfonimidoyl)-methyl]pyridin-2-yl}pyridin-2-amine], the pIC50 [1] was 7.41 and the pIC50 [2] was 8.89.
Work on `CCc1cc(CS(C)(=N)=O)cc(Nc2cc(-c3ccc(F)c4ccoc34)c(F)cn2)n1` (racemic) [Example 8, (rac)-N-{6-Ethyl-4-[(S-methylsulfonimidoyl)methyl]pyridin-2-yl}-5-fluoro-4-(4-fluoro-1-benzofuran-7-yl)pyridin-2-amine] yielded a pIC50 [1] of 7.85 and a pIC50 [2] of 8.89.
Work on `CS(=O)(Cc1ccnc(Nc2cc(-c3ccc(F)c4ccoc34)c(F)cn2)c1)=NC#N` (racemic) [Example 9, (rac)-{[(2-{[5-fluoro-4-(4-fluoro-1-benzofuran-7-yl)pyridin-2-yl]amino}pyridin-4-yl)methyl](methyl)oxido-λ^6-sulfanylidene}cyanamide] yielded a pIC50 [1] of 6.84 and a pIC50 [2] of 8.80.
Work on `CC(=O)N=S(C)(=O)Cc1ccnc(Nc2cc(-c3ccc(F)c4ccoc34)c(F)cn2)c1` (racemic) [Example 10, (rac)-N-{[(2-{[5-fluoro-4-(4-fluoro-1-benzofuran-7-yl)pyridin-2-yl]amino}pyridin-4-yl)methyl](methyl)oxido-λ^6-sulfanylidene}acetamide] yielded a pIC50 [1] of 6.78 and a pIC50 [2] of 8.64.
`CCOC(=O)N=S(C)(=O)Cc1ccnc(Nc2cc(-c3ccc(F)c4ccoc34)c(F)cn2)c1` (racemic) [Example 11, (rac)-Ethyl {[(2-{[5-fluoro-4-(4-fluoro-1-benzofuran-7-yl)pyridin-2-yl]amino}pyridin-4-yl)methyl](methyl)oxido-λ^6-sulfanylidene}carbamate] gave a pIC50 [1] of 6.86 and a pIC50 [2] of 8.70.
In the case of `CCNC(=O)N=S(C)(=O)Cc1ccnc(Nc2cc(-c3ccc(F)c4ccoc34)c(F)cn2)c1` (racemic) [Example 12, (rac)-1-Ethyl-3-{[(2-{[5-fluoro-4-(4-fluoro-1-benzofuran-7-yl)pyridin-2-yl]amino}pyridin-4-yl)methyl](methyl)oxido-λ^6-sulfanylidene}urea], the pIC50 [1] was 6.95 and the pIC50 [2] was 8.72.
Work on `CS(=O)(Cc1ccnc(Nc2cc(-c3ccc(F)c4ccoc34)c(F)cn2)c1)=NC(=O)NCC(F)(F)F` (racemic) [Example 13, (rac)-1-{[(2-{[5-Fluoro-4-(4-fluoro-1-benzofuran-7-yl)pyridin-2-yl]amino}pyridin-4-yl)methyl](methyl)oxido-λ^6-sulfanylidene}-3-(2,2,2-trifluoroethyl)urea] yielded a pIC50 [1] of 6.55 and a pIC50 [2] of 8.64.
